Experimental data: patent US9718821B2, “Pyridopyrimidinone inhibitors of kinases” (AbbVie Inc., priority 2012, dated 2017)

Molecular target: T1, GST-tagged-Wee1 kinase (Homo sapiens, UniProt P30291)
T1 construct: purchased Carnabio 05-177
Assay: Wee1 time-resolved fluorescence equilibrium binding assay (displacement of Oregon Green-labeled ATP-competitive kinase probe)
Conditions: enzyme binding data; GST-tagged-Wee1 kinase 2 nM, fluorescent probe 300 nM, inhibitor 0.003 to 10 micromolar, 1 hour incubation; read-out: Wee-1 binding (Ki nM)
Method: Wee1 kinase was assayed using a time-resolved fluorescence equilibrium binding assay monitoring displacement of a rapidly reversible Oregon Green-labeled ATP-competitive kinase probe (N-(2-(2-(2-(4-(4-(5-chloro-4-(2-(1-hydroxycyclobutyl)thiazol-5-yl)-1H-pyrrolo[2,3-b]pyridin-2-yl)phenyl)piperazin-1-yl)ethoxy)ethoxy)ethyl)-2′,7′-difluoro-3′,6′-dihydroxy-3-oxo-3H-spiro[isobenzofuran-1,9′-xanthene]-5-carboxamide) by competitive Wee1 inhibitors.
Table 1 depicts enzyme binding data (Ki)for exemplary compounds.

T1 sequence (P30291 whole entry): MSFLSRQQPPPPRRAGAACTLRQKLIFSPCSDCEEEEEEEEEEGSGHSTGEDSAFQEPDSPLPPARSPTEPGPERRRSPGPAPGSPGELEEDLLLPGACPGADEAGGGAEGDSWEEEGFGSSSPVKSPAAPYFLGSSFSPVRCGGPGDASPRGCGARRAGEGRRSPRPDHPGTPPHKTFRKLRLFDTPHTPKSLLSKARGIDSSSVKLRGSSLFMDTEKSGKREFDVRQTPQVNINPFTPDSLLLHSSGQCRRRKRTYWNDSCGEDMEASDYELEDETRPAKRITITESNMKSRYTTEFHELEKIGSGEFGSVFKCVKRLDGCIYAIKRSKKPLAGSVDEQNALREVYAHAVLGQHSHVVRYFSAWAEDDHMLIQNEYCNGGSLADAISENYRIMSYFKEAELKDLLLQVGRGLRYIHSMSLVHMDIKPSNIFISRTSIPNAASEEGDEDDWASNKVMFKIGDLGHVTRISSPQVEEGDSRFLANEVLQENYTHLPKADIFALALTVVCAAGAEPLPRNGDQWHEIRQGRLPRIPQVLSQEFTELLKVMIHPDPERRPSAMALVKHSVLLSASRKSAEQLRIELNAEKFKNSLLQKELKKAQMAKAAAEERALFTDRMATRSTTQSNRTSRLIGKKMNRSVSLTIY

SMILES | Ki [nM]
CC1(C)CNCc2cc(Nc3ncc4c(=O)n(-c5c(Cl)cccc5Cl)cc(CO)c4n3)ccc21 [Example 58, 6-(2,6-dichlorophenyl)-2-[(4,4-dimethyl-1,2,3,4-tetrahydroisoquinolin-7-yl)amino]-8-(hydroxymethyl)pyrido[4,3-d]pyrimidin-5(6H)-one] | 0.1
Cc1cn(-c2c(Cl)cccc2Cl)c(=O)c2nnc(Nc3ccc4c(c3)CN(C)CC43CC3)nc12 [Example 135, 7-(2,6-dichlorophenyl)-5-methyl-3-[(2′-methyl-2′,3′-dihydro-1′H-spiro[cyclopropane-1,4′-isoquinolin]-7′-yl)amino]pyrido[4,3-e][1,2,4]triazin-8(7H)-one] | 5.7
C=Cc1cn(-c2c(F)cccc2Cl)c(=O)c2cnc(Nc3ccc4c(c3)CN(C)CC43CC3)nc12 [Example 63, 6-(2-chloro-6-fluorophenyl)-8-ethenyl-2-[(2′-methyl-2′,3′-dihydro-1′H-spiro[cyclopropane-1,4′-isoquinolin]-7′-yl)amino]pyrido[4,3-d]pyrimidin-5(6H)-one] | 0.9
C=Cc1cn(-c2c(Cl)cccc2Cl)c(=O)c2cnc(Nc3ccc4c(c3)CNCC43CC3)nc12 [Example 51, 6-(2,6-dichlorophenyl)-2-(2′,3′-dihydro-1′H-spiro[cyclopropane-1,4′-isoquinolin]-7′-ylamino)-8-ethenylpyrido[4,3-d]pyrimidin-5(6H)-one] | 0.4
CNC(=O)CSc1ccc(Nc2ncc3c(=O)n(-c4c(Cl)cccc4Cl)cc(C)c3n2)cc1 [Example 114, 2-[(4-{[6-(2,6-dichlorophenyl)-8-methyl-5-oxo-5,6-dihydropyrido[4,3-d]pyrimidin-2-yl]amino}phenyl)sulfanyl]-N-methylacetamide] | 0.8
Cc1nn(C)c(C)c1-n1cc(C)c2nc(Nc3ccc4c(c3)CNCC4)ncc2c1=O [Example 119, 8-methyl-2-(1,2,3,4-tetrahydroisoquinolin-7-ylamino)-6-(1,3,5-trimethyl-1H-pyrazol-4-yl)pyrido[4,3-d]pyrimidin-5(6H)-one] | 1.6
C=Cc1cn(-c2c(F)cccc2Cl)c(=O)c2cnc(Nc3ccc4c(c3)CC(N(C)C)C4)nc12 (stereo not shown) [Example 64, 6-(2-chloro-6-fluorophenyl)-2-{[2-(dimethylamino)-2,3-dihydro-1H-inden-5-yl]amino}-8-ethenylpyrido[4,3-d]pyrimidin-5(6H)-one] | 0.5
Cc1cn(-c2c(Cl)cccc2Cl)c(=O)c2cnc(Nc3ccc(N[C@H]4CC[C@H](N(C)C)CC4)cc3)nc12 [Example 132, 6-(2,6-dichlorophenyl)-2-[(4-{[trans-4-(dimethylamino)cyclohexyl]amino}phenyl)amino]-8-methylpyrido[4,3-d]pyrimidin-5(6H)-one] | 0.4
C=Cc1cn(-c2c(Cl)cccc2Cl)c(=O)c2cnc(Nc3ccc4c(c3)CNCC4(C)C)nc12 [Example 56, 6-(2,6-dichlorophenyl)-2-[(4,4-dimethyl-1,2,3,4-tetrahydroisoquinolin-7-yl)amino]-8-ethenylpyrido[4,3-d]pyrimidin-5(6H)-one] | 0.5
O=c1c2cnc(Nc3ccc4c(c3)CNCC43CC3)nc2c(C(F)F)cn1-c1c(Cl)cccc1Cl [Example 86, 6-(2,6-dichlorophenyl)-8-(difluoromethyl)-2-(2′,3′-dihydro-1′H-spiro[cyclopropane-1,4′-isoquinolin]-7′-ylamino)pyrido[4,3-d]pyrimidin-5(6H)-one] | 0.305
Cc1cn(-c2ccccc2-c2cnco2)c(=O)c2cnc(Nc3ccc4c(c3)CNCC4)nc12 [Example 105, 8-methyl-6-[2-(1,3-oxazol-5-yl)phenyl]-2-(1,2,3,4-tetrahydroisoquinolin-7-ylamino)pyrido[4,3-d]pyrimidin-5(6H)-one] | 122
C=Cc1cn(-c2c(Cl)cccc2Cl)c(=O)c2cnc(Nc3ccc4c(c3)CC(N(C)C)C4)nc12 (stereo not shown) [Example 49, 6-(2,6-dichlorophenyl)-2-{[2-(dimethylamino)-2,3-dihydro-1H-inden-5-yl]amino}-8-ethenylpyrido[4,3-d]pyrimidin-5(6H)-one] | 0.3

The remaining compounds from weak to strong by Ki, led by results:

Ki [nM] | SMILES
321 | COC(=O)c1ccc(Cl)c(-n2cc(C)c3nc(Nc4ccc5c(c4)CNCC5)ncc3c2=O)c1 [Example 107, methyl 4-chloro-3-[8-methyl-5-oxo-2-(1,2,3,4-tetrahydroisoquinolin-7-ylamino)pyrido[4,3-d]pyrimidin-6(5H)-yl]benzoate]
2.8 | Cc1cn(-c2cccc3ccccc23)c(=O)c2cnc(Nc3ccc(N4CCC(N(C)C)CC4)cc3)nc12 [Example 101, 2-({4-[4-(dimethylamino)piperidin-1-yl]phenyl}amino)-8-methyl-6-(naphthalen-1-yl)pyrido[4,3-d]pyrimidin-5(6H)-one]
1.6 | Cc1noc(C)c1-n1cc(C)c2nc(Nc3ccc4c(c3)CNCC4)ncc2c1=O [Example 124, 6-(3,5-dimethyl-1,2-oxazol-4-yl)-8-methyl-2-(1,2,3,4-tetrahydroisoquinolin-7-ylamino)pyrido[4,3-d]pyrimidin-5(6H)-one]
1 | Cc1cn(-c2c(Cl)cccc2Cl)c(=O)c2cnc(Nc3ccc4c(c3)CN(CCN(C)C)C4)nc12 [Example 141, 6-(2,6-dichlorophenyl)-2-({2-[2-(dimethylamino)ethyl]-2,3-dihydro-1H-isoindol-5-yl}amino)-8-methylpyrido[4,3-d]pyrimidin-5(6H)-one]
0.8 | Cc1cn(-c2c(F)cccc2Cl)c(=O)c2cnc(Nc3ccc4c(c3)CNCC4)nc12 [Example 75, 6-(2-chloro-6-fluorophenyl)-8-methyl-2-(1,2,3,4-tetrahydroisoquinolin-7-ylamino)pyrido[4,3-d]pyrimidin-5(6H)-one]
0.6 | Cc1cccc(O)c1-n1cc(C)c2nc(Nc3ccc4c(c3)CNCC4)ncc2c1=O [Example 118, 6-(2-hydroxy-6-methylphenyl)-8-methyl-2-(1,2,3,4-tetrahydroisoquinolin-7-ylamino)pyrido[4,3-d]pyrimidin-5(6H)-one]
0.5 | C=Cc1cn(-c2c(F)cccc2Cl)c(=O)c2cnc(Nc3ccc(N4CCC(N(C)C)CC4)cc3)nc12 [Example 60, 6-(2-chloro-6-fluorophenyl)-2-({4-[4-(dimethylamino)piperidin-1-yl]phenyl}amino)-8-ethenylpyrido[4,3-d]pyrimidin-5(6H)-one]
0.4 | Cc1cn(-c2c(Cl)cccc2Cl)c(=O)c2cnc(Nc3ccc4c(c3)CN(C3CCN(C)CC3)C4)nc12 [Example 137, 6-(2,6-dichlorophenyl)-8-methyl-2-{[2-(1-methylpiperidin-4-yl)-2,3-dihydro-1H-isoindol-5-yl]amino}pyrido[4,3-d]pyrimidin-5(6H)-one]
0.254 | O=c1c2cnc(Nc3ccc4c(c3)CNCC4)nc2c(C(F)F)cn1-c1c(Cl)cccc1Cl [Example 87, 6-(2,6-dichlorophenyl)-8-(difluoromethyl)-2-(1,2,3,4-tetrahydroisoquinolin-7-ylamino)pyrido[4,3-d]pyrimidin-5(6H)-one]
0.1 | C=Cc1cn(-c2c(Cl)cccc2Cl)c(=O)c2cnc(Nc3ccc4c(c3)CCNC4)nc12 [Example 59, 6-(2,6-dichlorophenyl)-8-ethenyl-2-(1,2,3,4-tetrahydroisoquinolin-6-ylamino)pyrido[4,3-d]pyrimidin-5(6H)-one]
